Measurements from patent US20240228499A1, “MASP-2 INHIBITORS AND METHODS OF USE” (Omeros Corporation, priority 2022, published 2024).
Where a name gives a salt, the structure may show the parent alone.

Key:
MASP-2 (CCP1-CCP2-SP) = target: T1, MASP-2 (CCP1-CCP2-SP) (Homo sapiens, UniProt O00187); assay: Enzymatic assay for MASP-2 inhibitory activity (fluorogenic substrate); format: biochemical; conditions: room temperature, 20 mM Hepes pH 7.4, 20 min
T1 construct: 15 μL of Enzyme MASP-2 (CCP1-CCP2-SP) in Assay Buffer
Description: The MASP-2 assay utilizes a fluorogenic substrate, based on the cleavage site for its natural substrate C2. The assay was run at room temperature in an assay buffer containing 20 mM HEPES, pH 7.4, 140 mM NaCl and 0.1% Tween 20. Assay parameters were adjusted such that the assay was linear with respect to time, enzyme, and substrate concentrations. Under the optimized assays conditions, IC50 values were equivalent to Ki values, except in the few cases of “tight binding” inhibitors. Cases of “tight binding” or possible “slow binding” inhibitors were handled by the methods described in Copeland R. A. (2013) Evaluation of Enzyme Inhibitors in Drug Discovery. 2nd Ed., John Wiley and Sons, Inc., Chapters 5-7.
The MASP-2 assay protocol was carried out as follows. Test compounds were serially diluted in DMSO and then 100 nL of each dilution was transferred to the assay plate(s). 10 μL of Assay Buffer was added, followed by 15 μL of Enzyme MASP-2 (CCP1-CCP2-SP) in Assay Buffer. 15 μL of Substrate in Assay Buffer was then added and the mixture was mixed to start the reaction. After 20 min at room temperature, 15 μL of a stop solution (0.1 M acetic acid) was added, the sample was mixed, and the plates were read on a SpectraMax i3× Microplate Reader with the data exported as an Excel file. Each assay plate included a “no inhibitor” (DMSO only) control, a “no enzyme” control, and a reference inhibitor control. % Activity values=100*(average test comp. fluorescence−average “no enzyme” fluorescence)/(average “DMSO only” fluorescence−average “no enzyme” fluorescence). IC50 and Ki replicate values were very reproducible, with values well within +2-fold.

human a-thrombin = target: T2, human a-thrombin (Homo sapiens, UniProt P00734); assay: Enzymatic assay for thrombin (fluorogenic peptide substrate Boc-VPR-AMC); format: biochemical; conditions: room temperature, 20 mM Hepes pH 7.4, 20 min
T2 construct: enzyme (human a-thrombin (BioPharm® Lab.)); purchased BioPharm Lab
Description: The thrombin assay utilizes a fluorogenic peptide substrate (Boc-VPR-AMC (R&D Systems) and was run at room temperature in an assay buffer containing 20 mM Hepes, pH 7.4, 140 mM NaCl and 0.1% Tween 20. Assay parameters were adjusted such that the assay was linear with respect to time, enzyme, and substrate concentrations. Under these optimized assays conditions, IC50 values were equivalent to Ki values, except in a few cases of “tight binding” inhibitors. Cases of “tight binding” or possible “slow binding” inhibitors were handled by the methods described in Copeland R.A. (2013) Evaluation of Enzyme Inhibitors in Drug Discovery. 2nd Ed. John Wiley and Sons, Inc., Chapters 5-7.
The thrombin assay protocol was carried out as follows. Test compounds were serially diluted in DMSO and then 100 nL of each dilution was transferred to the assay plate(s). 10 μL of Assay Buffer was added, followed by 15 μL of enzyme (human a-thrombin (BioPharm® Lab.)) in assay buffer. 15 μL of substrate in assay buffer was then added and the sample mixed to start the reaction. After 20 min at room temperature, 15 μL of a stop solution (0.1 M acetic acid) was added, the sample was mixed, and the plates were read on a SpectraMax® i3× Microplate Reader with the data exported as Excel files. Each assay plate included a “no inhibitor” (DMSO only) control, a “no enzyme” control, and a reference inhibitor control. % Activity values=100*(ave. test comp. fluorescence−ave. “no enz” fluorescence)/(ave. “DMSO only” fluorescence−ave. “no enz” fluorescence). IC50 and Ki values were very reproducible, with values falling well within +2-fold.

T1 sequence (O00187 287-686 limits assumed): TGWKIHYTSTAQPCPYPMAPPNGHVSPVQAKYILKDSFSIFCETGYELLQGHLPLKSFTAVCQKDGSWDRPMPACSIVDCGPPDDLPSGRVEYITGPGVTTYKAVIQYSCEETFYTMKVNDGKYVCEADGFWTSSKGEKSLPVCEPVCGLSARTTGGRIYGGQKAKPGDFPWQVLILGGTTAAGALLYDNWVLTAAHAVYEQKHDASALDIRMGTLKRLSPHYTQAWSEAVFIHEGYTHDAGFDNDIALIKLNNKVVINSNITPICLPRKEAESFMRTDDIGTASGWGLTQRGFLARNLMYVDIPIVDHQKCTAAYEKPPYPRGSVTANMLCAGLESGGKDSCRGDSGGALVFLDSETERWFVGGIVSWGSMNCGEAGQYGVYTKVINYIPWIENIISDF

| SMILES | Ki (MASP-2 (CCP1-CCP2-SP)) | Ki (human a-thrombin) |
| --- | --- | --- |
| Cc1cccc(CNc2cnc3n(c2=O)[C@H](C(=O)NCc2ccc(N)nc2C)CC3)c1F [Compound 33, (S)-N-((6-amino-2-methylpyridin-3-yl)methyl)-3-((2-fluoro-3-methylbenzyl)amino)-4-oxo-4,6,7,8-tetrahydropyrrolo[1,2-a]pyrimidine-6-carboxamide, di-trifluoroacetate] | < 500 nM | 500 to 2500 nM |
| Cc1nc(N)ccc1CNC(=O)[C@@H]1CCc2ncc(NCc3cccc(Cl)c3)c(=O)n21 [Compound 58] | < 500 nM | 500 to 2500 nM |
| Cc1cc(Cl)cc(CNc2cnc3n(c2=O)[C@H](C(=O)NCc2ccc(N)nc2C)CC3)c1 [Compound 55, (S)-N-((6-amino-2-methylpyridin-3-yl)methyl)-3-((3-chloro-5-methylbenzyl)amino)-4-oxo-4,6,7,8-tetrahydropyrrolo[1,2-a]pyrimidine-6-carboxamide] | < 500 nM | < 500 nM |
| COc1ccc(C)cc1CNc1cnc2n(c1=O)[C@H](C(=O)NCc1ccc(N)nc1C)CC2 [Compound 9, (S)-N-((6-amino-2-methylpyridin-3-yl)methyl)-3-((2-methoxy-5-methylbenzyl)amino)-4-oxo-4,6,7,8-tetrahydropyrrolo[1,2-a]pyrimidine-6-carboxamide, trifluoroacetate] | < 500 nM | 2500 to 10000 nM |
| Nc1ccc2c(n1)CC[C@H]2NC(=O)[C@@H]1CCc2ncc(NCc3cccc(CO)c3)c(=O)n21 [Compound 103] | < 500 nM | 2500 to 10000 nM |
| CCN(Cc1cc(C)cc(OC)c1)c1cnc2n(c1=O)[C@H](C(=O)NCc1ccc(N)nc1C)CC2 [Compound 67, (S)—N-((6-amino-2-methylpyridin-3-yl)methyl)-3-(ethyl(3-methoxy-5-methylbenzyl)amino)-4-oxo-4,6,7,8-tetrahydropyrrolo[1,2-a]pyrimidine-6-carboxamide] | 500 to 2500 nM | 10000 to 25000 nM |
| Cc1nc(N)ccc1CNC(=O)[C@@H]1CCc2ncc(NCc3cnn(-c4ccccc4)c3)c(=O)n21 [Compound 24, (S)—N-((6-amino-2-methylpyridin-3-yl)methyl)-4-oxo-3-(((1-phenyl-1H-pyrazol-4-yl)methyl)amino)-4,6,7,8-tetrahydropyrrolo[1,2-a]pyrimidine-6-carboxamide, trifluoroacetate] | < 500 nM | 10000 to 25000 nM |
| Cc1cc(Cl)cc(CNc2cnc3n(c2=O)[C@H](C(=O)N[C@@H]2CCc4ncccc42)CC3)c1 [Compound 85, (S)-3-((3-chloro-5-methylbenzyl)amino)-N-((R)-6,7-dihydro-5H-cyclopenta[b]pyridin-5-yl)-4-oxo-4,6,7,8-tetrahydropyrrolo[1,2-a]pyrimidine-6-carboxamide] | < 500 nM | > 25000 nM |
| Cc1cccc(C(C)Nc2cnc3n(c2=O)[C@H](C(=O)NCc2cc4c(s2)CNC4)CC3)c1 (single isomer, unassigned) [Compound 70, di-trifluoroacetate] | < 500 nM | 10000 to 25000 nM |
| Cc1cc(C)cc(CNc2cnc3n(c2=O)[C@@H](C(=O)NCc2ccc(N)nc2C)CC3)c1 [Compound 78] | 2500 to 10000 nM | > 25000 nM |

Continued, values first:

| Ki (MASP-2 (CCP1-CCP2-SP)) | Ki (human a-thrombin) | SMILES |
| --- | --- | --- |
| 500 to 2500 nM | > 25000 nM | Cc1cc(Cl)cc(CNc2cnc3n(c2=O)[C@H](C(=O)NCc2cccnc2)CC3)c1 [Compound 66] |
| < 500 nM | 2500 to 10000 nM | Nc1ccc2c(n1)CC[C@H]2NC(=O)[C@@H]1CCc2ncc(NCc3ccc4c(c3)OCC4)c(=O)n21 [Compound 99] |
| < 500 nM | 500 to 2500 nM | CCOc1cccc(CNc2cnc3n(c2=O)[C@H](C(=O)NCc2ccc(N)nc2C)CC3)c1 [Compound 57, (S)—N-((6-amino-2-methylpyridin-3-yl)methyl)-3-((3-ethoxybenzyl)amino)-4-oxo-4,6,7,8-tetrahydropyrrolo[1,2-a]pyrimidine-6-carboxamide] |
| < 500 nM | 500 to 2500 nM | Cc1nc(N)ccc1CNC(=O)[C@@H]1CCc2ncc(NCc3cccc(N4CCOCC4)c3)c(=O)n21 [Compound 11, (S)-N-((6-amino-2-methylpyridin-3-yl)methyl)-3-((3-morpholinobenzyl)amino)-4-oxo-4,6,7,8-tetrahydropyrrolo[1,2-a]pyrimidine-6-carboxamide, hydrochloride] |
| < 500 nM | 500 to 2500 nM | Cc1cc(CNc2cnc3n(c2=O)[C@H](C(=O)NCc2ccc(N)nc2C)CC3)cc(C(F)(F)F)c1 [Compound 29, (S)-N-((6-amino-2-methylpyridin-3-yl)methyl)-3-((3-methyl-5-(trifluoromethyl)benzyl)amino)-4-oxo-4,6,7,8-tetrahydro-pyrrolo[1,2-a]pyrimidine-6-carboxamide, di-trifluoroacetate] |
| < 500 nM | 500 to 2500 nM | CCc1cccc(CNc2cnc3n(c2=O)[C@H](C(=O)NCc2ccc(N)nc2C)CC3)c1 [Compound 26] |
| < 500 nM | 10000 to 25000 nM | Cc1nc(N)ccc1CNC(=O)[C@@H]1CCc2ncc(NCc3c(F)cccc3F)c(=O)n21 [Compound 32, (S)-N-((6-amino-2-methylpyridin-3-yl)methyl)-3-((2,6-difluorobenzyl)amino)-4-oxo-4,6,7,8-tetrahydropyrrolo[1,2-a]pyrimidine-6-carboxamide, di-trifluoroacetate] |
| < 500 nM | 500 to 2500 nM | Cc1cccc(CNc2cnc3n(c2=O)[C@H](C(=O)NCc2ccc(N)nc2C)CC3)c1 [Compound 60, (S)—N-((6-amino-2-methylpyridin-3-yl)methyl)-3-((3-methylbenzyl)amino)-4-oxo-4,6,7,8-tetrahydropyrrolo[1,2-a]pyrimidine-6-carboxamide] |
| < 500 nM | 2500 to 10000 nM | Cc1ccc(CNc2cnc3n(c2=O)[C@H](C(=O)NCc2ccc(N)nc2C)CC3)cc1 [Compound 61] |
| < 500 nM | 2500 to 10000 nM | Cc1cc(C)cc(CNc2cnc3n(c2=O)[C@H](C(=O)NCc2cc4cnccc4[nH]2)CC3)c1 [Compound 6, (S)—N-((1H-pyrrolo[3,2-c]pyridin-2-yl)methyl)-3-((3,5-dimethylbenzyl)amino)-4-oxo-4,6,7,8-tetrahydropyrrolo[1,2-a]pyrimidine-6-carboxamide] |
| < 500 nM | < 500 nM | COc1cc(C)cc(CNc2cnc3n(c2=O)[C@H](C(=O)NCc2ccc(N)nc2C)CC3)c1 [Compound 2, (S)—N-((6-amino-2-methylpyridin-3-yl)methyl)-3-((3-methoxy-5-methylbenzyl)amino)-4-oxo-4,6,7,8-tetrahydropyrrolo[1,2-a]pyrimidine-6-carboxamide] |
| < 500 nM | 500 to 2500 nM | Cc1nc(N)ccc1CNC(=O)[C@@H]1CCc2ncc(NCc3cccc(C(F)F)c3)c(=O)n21 [Compound 71, (S)—N-((6-amino-2-methylpyridin-3-yl)methyl)-3-((3-(difluoromethyl)benzyl)amino)-4-oxo-4,6,7,8-tetrahydropyrrolo[1,2-a]pyrimidine-6-carboxamide] |
| < 500 nM | > 25000 nM | Cc1cc(CNc2cnc3n(c2=O)[C@H](C(=O)N[C@H](C)c2ccc(N)nc2)CC3)cc(C(F)(F)F)c1 [Compound 51, (S)—N—((R)-1-(6-aminopyridin-3-yl)ethyl)-3-((3-methyl-5-(trifluoromethyl)benzyl)amino)-4-oxo-4,6,7,8-tetrahydropyrrolo[1,2-a]pyrimidine-6-carboxamide. DI-trifluoroacetate] |
| < 500 nM | 500 to 2500 nM | Nc1ccc2c(n1)CC[C@H]2NC(=O)[C@@H]1CCc2ncc(NCc3cccc(C(F)F)c3)c(=O)n21 [Compound 84, (S)-N-((R)-2-amino-6,7-dihydro-5H-cyclopenta[b]pyridin-5-yl)-3-((3-(difluoromethyl)benzyl)amino)-4-oxo-4,6,7,8-tetrahydro-pyrrolo[1,2-a]pyrimidine-6-carboxamide] |
